Assay results reported in US9724397B2, “Sustained release formulations comprising very low molecular weight polymers” (IPSEN PHARMA S.A.S., priority 2006, dated 2017).

Assay: In-vivo release assay in Beagle dogs with a VLMW polymer not end-capped
Details: 10% BIM21003 in PLGA 50/50 ended by carboxylic acid group (J001/3000013), intramuscular, about 3.6 mg per animal, RIA
Experimental: An in-vivo assay was performed with a semi-solid formulation of 10% BIM21003 using a PLGA 50/50 ended by a carboxylic acid group (J001/3000013 batch, see table 1). The preparation of the formulation was achieved by a push-pull kneading process with 2 syringes at about 50° C. as described in example 6. The mixture (bulk product) was conditioned in a 0.3 ml single-dose syringes coupled with 20×1.4 mm needles thereafter packed in individual aluminium sealed bags, and sterilized by gamma-irradiation at 25 kGy in dry ice.
Six male Beagle dogs were administered intramuscularly with single-dose syringes previously heated at 50° C. for 3 min in order to improve its fluidity and facilitate its injection. Syringes were weighted before and after administration, and the injected dose of BIM21003 was calculated to be about 3.6 mg per animal.
Four-ml blood samples were obtained from cephalic veins at specified time intervals post-administration. The blood samples were placed in tubes containing an anticoagulant (15% EDTA.K3 aqueous solution) and a preservative (Trasylol®). After centrifugation, plasma was removed and samples were stored below −20° C. until RIA analysis.

Question: With `CC(C)C[C@H](NC(=O)[C@@H](Cc1c[nH]c2ccccc12)NC(=O)[C@H](Cc1ccc(O)cc1)NC(=O)[C@H](CO)NC(=O)[C@H](Cc1c[nH]c2ccccc12)NC(=O)[C@H](Cc1c[nH]cn1)NC(=O)[C@@H]1CCC(=O)N1)C(=O)N[C@@H](CCCNC(=N)N)C(=O)N1CCC[C@H]1C(=O)NCC(N)=O` [BIM-21003, triptorelin] as the compound, how does the “BIM-21003 plasma levels after 3 days post-administration” value read?
Answer: Its value is “below the limit of quantification”.
